As usually defined, the IC50 is the concentration needed to halve the response being measured.

One experiment has as its target NAMPT (Homo sapiens, UniProt P43490). Kind of experiment: TR-FRET Binding Assay of NAMPT with PRPP. The conditions noted are these: with 200 μM PRPP and 2.5 mM ATP; 2 nM NAMPT, 2 nM probe, 16 hours equilibration. The procedure, abridged: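 Read-out is TR-FRET after a 16 h equilibration allowing possible compound modification by the enzyme. Final mix: 2 nM NAMPT, 2 nM probe, 1 nM Tb-anti-His antibody, 200 μM PRPP, 2.5 mM ATP, 2% DMSO.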

For another experiment, the system named is PC3 cells. Put plainly: NAMPT Cell Proliferation Assay. The class given is cell-based. The conditions noted are these: Homo sapiens, PC-3, 120 h, 5 days incubation, cell viability by Cell Titer Glo. The procedure, abridged: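 Cell Titer Glo viability after 5-day exposure (37° C, 5% CO2); PC3, 500 cells/well, RPMI + 10% heat-inactivated FBS, overnight attachment before dosing. Dose range 10 μM to 1×10^−5 μM, 10-fold steps. IC50 = sigmoidal fit of % inhibition.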

In experiment [1] the target is NAMPT (human, recombinant, C-terminally His-tagged) (Homo sapiens, UniProt P43490). Kind of experiment: Time-Resolved Fluorescence Resonance Energy Transfer (TR-FRET) Binding Assay of NAMPT. The settings on record: without substrates; 6.8 nM NAMPT, 200 nM probe, 3 hours equilibration. The procedure, abridged: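 Competitive binding against an Oregon Green 488 tracer (200 nM), 6.8 nM His-tagged enzyme, 1 nM Tb antibody, 2% DMSO, 3 h at RT. IC50 derived from TR-FRET ratios.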
Chain of NAMPT (human, recombinant, C-terminally His-tagged) (P43490 whole entry): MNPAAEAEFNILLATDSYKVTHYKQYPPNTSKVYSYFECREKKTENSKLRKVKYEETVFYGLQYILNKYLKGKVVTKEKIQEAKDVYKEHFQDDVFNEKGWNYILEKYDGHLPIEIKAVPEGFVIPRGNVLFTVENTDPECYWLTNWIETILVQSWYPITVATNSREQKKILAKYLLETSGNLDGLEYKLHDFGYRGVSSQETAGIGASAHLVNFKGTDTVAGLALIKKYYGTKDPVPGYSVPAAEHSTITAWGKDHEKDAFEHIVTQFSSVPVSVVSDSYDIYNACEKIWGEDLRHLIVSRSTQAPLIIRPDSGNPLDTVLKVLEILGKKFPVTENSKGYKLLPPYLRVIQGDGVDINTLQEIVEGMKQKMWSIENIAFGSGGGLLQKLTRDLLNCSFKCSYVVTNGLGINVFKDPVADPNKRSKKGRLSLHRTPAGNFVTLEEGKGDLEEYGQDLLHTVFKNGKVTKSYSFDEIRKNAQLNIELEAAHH
(TR-FRET usually uses a lanthanide donor and a delayed reading to cut background.)

Chain of NAMPT (P43490 whole entry): as above

With `O=C(CCC1CCCC1)Nc1ccc(NC(=O)NCc2ccn3ccnc3c2)cc1` [Example 281, 3-cyclopentyl-N-(4-{[(imidazo[1,2-a]pyridin-7-ylmethyl)carbamoyl]amino}phenyl)propanamide], the IC50 turned out to be 0.214 nM on NAMPT, 24.8 nM with PC3 cells and 5.5 nM in experiment [1].

In the case of `CC(C)C(=O)N1CCC(Oc2ccc(NC(=O)NCc3ccn4ccnc4c3)cc2)CC1` [Example 442, 1-(imidazo[1,2-a]pyridin-7-ylmethyl)-3-(4-{[1-(2-methylpropanoyl)piperidin-4-yl]oxy}phenyl)urea], the IC50 came to 0.2 nM at NAMPT, 70.7 nM in the experiment with PC3 cells and 301 nM in experiment [1].

Take `CC(C)(C)CC(=O)N1CCC(O)(c2ccc(C(=O)NCc3ccn4ccnc4c3)s2)CC1` [Example 555, 5-[1-(3,3-dimethylbutanoyl)-4-hydroxypiperidin-4-yl]-N-(imidazo[1,2-a]pyridin-7-ylmethyl)thiophene-2-carboxamide]: the figures for the IC50 (on NAMPT; with PC3 cells; in experiment [1]) were 0.749 nM, 33.2 nM and 427 nM, respectively.

As for `O=C(NCc1ccn2ccnc2c1)Nc1ccc(O[C@@H]2CCN(C(=O)c3ccccc3Cl)C2)cc1` [Example 695, 1-(4-{[(3R)-1-(2-chlorobenzoyl)pyrrolidin-3-yl]oxy}phenyl)-3-(imidazo[1,2-a]pyridin-7-ylmethyl)urea], the IC50 came out at 0.621 nM at NAMPT, 5.82 nM in the experiment with PC3 cells and 13.7 nM in experiment [1].

Regarding `O=C(NCc1ccn2ccnc2c1)c1ccc(O[C@H]2CCN(C(=O)C3CCOCC3)C2)cc1` [Example 342, N-(imidazo[1,2-a]pyridin-7-ylmethyl)-4-{[(3S)-1-(tetrahydro-2H-pyran-4-ylcarbonyl)pyrrolidin-3-yl]oxy}benzamide], the figures for the IC50 (at NAMPT; with PC3 cells; in experiment [1]) were 0.454 nM, 6730 nM and more than 10000 nM, respectively.

As to `O=C(NCc1ccn2ccnc2c1)c1ccc(-c2cnn(CC3(F)CCOCC3)c2)o1` [Example 790, 5-{1-[(4-fluorotetrahydro-2H-pyran-4-yl)methyl]-1H-pyrazol-4-yl}-N-(imidazo[1,2-a]pyridin-7-ylmethyl)furan-2-carboxamide], the IC50 on NAMPT is 0.586 nM; in the experiment on PC3 cells it was 2.6 nM; in experiment [1], 79.5 nM.

Consider `CC(C)C(=O)N1CCC(c2ccc(C(=O)NCc3ccn4ccnc4c3)cc2)C1` (stereo not drawn) [Example 367, N-(imidazo[1,2-a]pyridin-7-ylmethyl)-4-[1-(2-methylpropanoyl)pyrrolidin-3-yl]benzamide], for which the IC50 turned out to be 0.18 nM at NAMPT, 601 nM in the experiment with PC3 cells and 650 nM in experiment [1].

Turning to `O=C(NCc1ccn2ccnc2c1)Nc1ccc(C2CCN(C(=O)c3ccccc3F)CC2)cc1` [Example 719, 1-{4-[1-(2-fluorobenzoyl)piperidin-4-yl]phenyl}-3-(imidazo[1,2-a]pyridin-7-ylmethyl)urea], the IC50 came out at 0.835 nM at NAMPT, 2.37 nM in the experiment on PC3 cells and 6.32 nM in experiment [1].

Regarding `O=C(NCc1ccn2ccnc2c1)c1ccc(OC2CN(C(=O)c3ccccc3)C2)cc1` [Example 561, 4-[(1-benzoylazetidin-3-yl)oxy]-N-(imidazo[1,2-a]pyridin-7-ylmethyl)benzamide], the half-inhibitory concentration (IC50) came out at 0.335 nM on NAMPT, 240 nM in the experiment with PC3 cells and 869 nM in experiment [1].

Take `O=C(NCc1ccc2nccn2c1)c1ccc(-c2cnn(CC3CCCCO3)c2)s1` (stereo not drawn) [Example 186, N-(imidazo[1,2-a]pyridin-6-ylmethyl)-5-[1-(tetrahydro-2H-pyran-2-ylmethyl)-1H-pyrazol-4-yl]thiophene-2-carboxamide]: the IC50 is 0.347 nM on NAMPT, 2.36 nM in the experiment on PC3 cells and 65.7 nM in experiment [1].

Regarding `CC1CC1C(=O)N1CC(c2ccc(C(=O)NCc3ccn4ccnc4c3)cc2)C1` (stereo not drawn) [Example 628, N-(imidazo[1,2-a]pyridin-7-ylmethyl)-4-{1-[(2-methylcyclopropyl)carbonyl]azetidin-3-yl}benzamide], the IC50 on NAMPT was 0.978 nM; in the experiment with PC3 cells, 43.6 nM; in experiment [1], 706 nM.

In the case of `COCCC(=O)N(Cc1ccc(C#N)cc1)c1ccc(C(=O)NCc2ccc3nccn3c2)cc1` [Example 240, 4-[(4-cyanobenzyl)(3-methoxypropanoyl)amino]-N-(imidazo[1,2-a]pyridin-6-ylmethyl)benzamide], the IC50 at NAMPT amounted to 8.75 nM; in the experiment on PC3 cells, 651 nM; in experiment [1], 7350 nM.

With `CC(C)CCNC(=O)c1cnc(NC(=O)NCc2ccn3ccnc3c2)s1` [Example 407, 2-{[(imidazo[1,2-a]pyridin-7-ylmethyl)carbamoyl]amino}-N-(3-methylbutyl)-1,3-thiazole-5-carboxamide], the IC50 at NAMPT came out at 0.659 nM; with PC3 cells, 1310 nM; in experiment [1], 220 nM.

For `CC/C=C(\C)C(=O)N1CCC(c2ccc(C(=O)NCc3ccn4ccnc4c3)cc2)CC1` [Example 510, N-(imidazo[1,2-a]pyridin-7-ylmethyl)-4-{1-[(2E)-2-methylpent-2-enoyl]piperidin-4-yl}benzamide], the IC50 worked out at 0.284 nM on NAMPT, 12.1 nM in the experiment on PC3 cells and 142 nM in experiment [1].

For the molecule `O=C(Cc1ccc(NC(=O)CC2CCCC2)cc1)Nc1ccc2nccn2c1` [Example 76, 2-cyclopentyl-N-{4-[2-(imidazo[1,2-a]pyridin-6-ylamino)-2-oxoethyl]phenyl}acetamide], the figures for the IC50 (on NAMPT; in the experiment on PC3 cells; in experiment [1]) were 0.739 nM, 185 nM and 993 nM, respectively.

With `CC(C)(C)OC(=O)N1CCC(Oc2ccc(C(=O)NCc3ccn4ccnc4c3)cc2)CC1` [Example 365, tert-butyl 4-{4-[(imidazo[1,2-a]pyridin-7-ylmethyl)carbamoyl]phenoxy}piperidine-1-carboxylate], the IC50 amounted to 0.171 nM at NAMPT, 332 nM with PC3 cells and 1340 nM in experiment [1].

With `O=C(NCc1ccc2nccn2c1)c1ccc(-c2cnn(CC3CCCCC3)c2)s1` [Example 179, 5-[1-(cyclohexylmethyl)-1H-pyrazol-4-yl]-N-(imidazo[1,2-a]pyridin-6-ylmethyl)thiophene-2-carboxamide], the IC50 at NAMPT was determined as 0.445 nM; with PC3 cells, 2.18 nM; in experiment [1], 58.1 nM.

Regarding `N#Cc1ccc(C(=O)N2CCC(c3ccc(C(=O)NCc4ccn5ccnc5c4)cc3)CC2)cc1` [Example 520, 4-[1-(4-cyanobenzoyl)piperidin-4-yl]-N-(imidazo[1,2-a]pyridin-7-ylmethyl)benzamide], the IC50 on NAMPT is 0.301 nM; in the experiment with PC3 cells, 101 nM; in experiment [1], 565 nM.

In the case of `CC1(Cn2cc(-c3ccc(C(=O)NCc4ccn5ccnc5c4)s3)cn2)CCNCC1` [Example 789, N-(imidazo[1,2-a]pyridin-7-ylmethyl)-5-{1-[(4-methylpiperidin-4-yl)methyl]-1H-pyrazol-4-yl}thiophene-2-carboxamide], the results for the IC50 (at NAMPT; in the experiment with PC3 cells; in experiment [1]) were 0.434 nM, 69.4 nM and 21.7 nM, respectively.

Turning to `O=C(NCc1ccn2ccnc2c1)c1ccc(OC2CCN(C(=O)CN3CCOCC3)CC2)cc1` [Example 423, N-(imidazo[1,2-a]pyridin-7-ylmethyl)-4-{[1-(morpholin-4-ylacetyl)piperidin-4-yl]oxy}benzamide], the IC50 turned out to be 0.338 nM on NAMPT, 187 nM in the experiment on PC3 cells and 8260 nM in experiment [1].

Take `CCCn1cc(-c2ccc(C(=O)NCc3ccn4ccnc4c3)s2)cn1` [Example 293, N-(imidazo[1,2-a]pyridin-7-ylmethyl)-5-(1-propyl-1H-pyrazol-4-yl)thiophene-2-carboxamide]: the IC50 on NAMPT amounted to 0.169 nM; in the experiment with PC3 cells it was 7.74 nM; in experiment [1], 27.3 nM.

Take `O=C(NCc1ccn2ccnc2c1)Nc1ccc(C2CCN(C(=O)CC3CCOCC3)CC2)cc1` [Example 223, 1-(imidazo[1,2-a]pyridin-7-ylmethyl)-3-{4-[1-(tetrahydro-2H-pyran-4-ylacetyl)piperidin-4-yl]phenyl}urea]: the figures for the IC50 (on NAMPT; in the experiment with PC3 cells; in experiment [1]) were 0.354 nM, 7.08 nM and 109 nM, respectively.

In the case of `O=C(NCc1ccn2ccnc2c1)Nc1ccc(C2CN(C(=O)[C@@H]3CCCO3)C2)cc1` [Example 459], the IC50 at NAMPT turned out to be 0.41 nM; with PC3 cells it was 77.7 nM; in experiment [1], 381 nM.

Consider `O=C(NCc1ccc2nccn2c1)c1ccc(C2=CCN(C(=O)C3CCCO3)CC2)cc1` (stereo not drawn) [Example 99, N-(imidazo[1,2-a]pyridin-6-ylmethyl)-4-[1-(tetrahydrofuran-2-ylcarbonyl)-1,2,3,6-tetrahydropyridin-4-yl]benzamide], for which the IC50 at NAMPT was 0.411 nM; in the experiment on PC3 cells it was 26.4 nM; in experiment [1], 119 nM.

With `Cc1cc(CC(=O)N(CC2CCCO2)c2ncc(C(=O)NCc3ccc4nccn4c3)s2)on1` (stereo not drawn) [Example 125, N-(imidazo[1,2-a]pyridin-6-ylmethyl)-2-{[(3-methyl-1,2-oxazol-5-yl)acetyl](tetrahydrofuran-2-ylmethyl)amino}-1,3-thiazole-5-carboxamide], the figures for the IC50 (at NAMPT; in the experiment on PC3 cells; in experiment [1]) were 2.09 nM, 23 nM and 547 nM, respectively.

Values taken from patent US9187472B2 (AbbVie Inc., priority 2012, dated 2015).
